Data on 2 compounds can be found in US10111847B2, “Compounds and methods for modulating vascular injury” (The Regents of the University of California, priority 2012, dated 2018).

In one assay the test system is MCP-1. Kind of assay: MCP-1 expression in TNF-α stimulated VSMCs by qRT-PCR. The format is cell-based, human. To be noted: 10, 100 nM; TNF-α 10 ng/ml 18 hours; P<0.05. The method, then: FIGS. 15A-15D. Representative images of Calcein-AM labeled U937 monocytes adhered to human sv-VSMCs pretreated with vehicle (A, B) or 7S-Maresin-1 (C) or 7S-Maresin-1 and pertussis toxin (D) for 30 min, followed by TNFα at 10 ng/ml for 4 hr (B, C, D). (E) Quantitative analysis of U937 adhesion assay in human sv-VSMCs and (F) human sv-ECs (1 ng/ml TNFα used for EC cells). P≤0.05, One-way ANOVA with Dunnett's post hoc test. *: P≤0.05 compared to control, unpaired t-test. †: P≤0.05 compared to TNFα, unpaired t-test. ‡: P≤0.05 compared to TNFα+7S-Maresin-1, unpaired t-test. (G) VSMCs were pretreated with 7S-Maresin-1 or vehicle for 30 min, followed by TNFα at 10 ng/ml for 4 hr. Whole cell lysates were blotted for VCAM-1 (Pierce Inc.) and beta-actin (Sigma). VCAM-1 and beta-actin western blotting image is representative of three independent experiments. Bar graph represents net quantitative densitometry analysis. N=3. P=0.06, One-way ANOVA with Kruskal Wallis nonparametric test. P=0.07 of TNFα, compared to control, Mann Whitney test. P=0.20 of 7S-Maresin-1 at 10 nm and 100 nm compared to TNFα, Mann Whitney test. Error bars: SEM. […] Expression of MCP-1 was measured by qRT-PCR, and normalized to unstimulated cells (n=3, results are mean±SEM, P<0.05 for Mar-1 (10 and 100 nM) vs TNF alone, unpaired t-test).

In another assay the test system is p65 subunit. Kind of assay: Nuclear translocation of p65 subunit in sv-VSMCs (immunofluorescence). The note with it: 100 nm, 30 min; TNFα 10 ng/ml 2 hrs. The format is cell-based, human. The method, then:
Immunofluorescence for p65 (RelA): 15000 VSMCs or 30000 ECs were seeded on a 8-well chamber slide. Cells received 30 min of Maresin-1 pretreatment, followed by TNF-α for 2 hr. Cells were fixed in 2% paraformaldehyde, followed by permeabilization with ice-cold acetone (10 min) and 1% Triton X-100 (20 min). Cells were incubated overnight in a humidified chamber with anti-p65 antibody (Santa Cruz Biotechnology Inc.) followed by Alexa-fluor 488 tagged secondary antibody (Life Technologies) and were visualized under a fluorescent microscope.
FIGS. 16A-16D. VSMCs were grown in chamber slides and treated with vehicle or 100 nm of 7S or 7R-Maresin-1 with/without 10 ng/ml pertussis toxin for 30 min, followed by TNFα (10 ng/ml) for 2 hrs. Cells were fixed and subsequently stained with anti-p65 (Santa Cruz Biotechnology) and secondary antibodies (Alexa-488). (A-D) Representative images of Ctrl (A), TNFα (B), 7R-Maresin-1+TNFα (C) and 7R-Maresin-1+pertussis toxin (10 ng/ml)+TNFα. (E) Mean fluorescence of nucleus and cytoplasm were quantified from all groups and the net result of the ratio of nucleus over cytoplasmic mean fluorescence is depicted in the bar graph, as a measure of relative p65 nuclear translocation. (N>=3). […]

Assay [1] deals with human saphenous vein vascular smooth muscle (sv-VSMC) cells. Kind of assay: TNFα induced superoxide production (DHE) in sv-VSMC (Maresin-1). The assay is classed as cell-based. To be noted: 100 nM; TNFα 10 ng/ml 4 hr. On the procedure:
Mar-1. Cells were grown in 8-well chamber slides at a density of 15000 cells/well for 2 days for VSMCs and 50000 cells/well for 2 days for ECs in a 96 well plate. After treatments, cells were incubated with dihydroethidium (DHE, 3 μM, Invitrogen) or CellRox (Invitrogen Inc, 5 μM for ECs) in media for 30 minutes at 37° C. in a humidified chamber with 5% CO2 protected from light. DAPI nuclear counter staining was utilized for DHE staining. For DHE, fluorescence was detected with TRITC filter allowing the detection of the DHE emission wavelength of 590-620 nm. Fluorescence quantitation was performed using ImageJ analysis software. For ECs, fluorescence measurements were taken using a Spectramax M2e plate reader.
FIGS. 13A-13D. Representative merged images of DHE staining, counterstained with DAPI. (A), Negative control. (B), TNFα at 10 ng/ml for 4 hr. […] (E) Quantitative comparison of DHE staining intensity in the nucleus of human saphenous vein vascular smooth muscle (sv-VSMC) cells, treated with TNFα and 7S and 7R-Maresin-1 with and without pertussis toxin. (F) Quantitative comparison of cellular ROS production by CellRox (Life technologies, Carlsbad, Calif.) in human saphenous vein endothelial (EC) cells treated with TNFα (1 ng/nil) and 7S-Maresin-1 (N>=3). […]

In assay [2] the test system is IKKα/β subunit. Kind of assay: TNFα induced phosphorylation of IKKα/β in sv-ECs, western blot. The format is cell-based, human. The note with it: 100 nm, 30 min; TNFα 1 ng/ml 15 min. On the procedure: (§1) Mar-1. VSMCs and ECs were lysed in buffer (20 mM Tris-Hcl, 137 mM NaCl, 10% Glycerol, 1% NP-40) with protease and phosphatase inhibitors (Halt inhibitor capsules, Pierce, Inc) by sonication on ice. The lysates were instantly snap frozen in liquid nitrogen and thawed back later for western blotting. After centrifugation (15,000 g for 20 minutes), the whole cell extract (supernatant) was collected and was heated at 100° C. in Laemlli buffer for 6 minutes. Lysates were run on Mini-Protean TGX gels
(§2) (Biorad) and transferred on PVDF membranes which were probed with appropriate primary and secondary antibodies and visualized for quantitation using q-dot nanocrystals (Life Technologies, Inc).
(§3) Cells were pretreated with 100 nm of 7S/7R-Maresin-1 for 30 min, followed by TNFα (10 ng/ml for VSMC and 1 ng/ml for EC) for 15 min. Whole cell lysates were collected and probed for pan and phospho IKK (Cell Signaling Inc.).
(§4) FIG. 18. IKK-phospho and total IKK western blotting image is representative of three independent experiments. Bar graph represents net quantitative densitometry analysis. N=3. P≤0.05, One-way ANOVA with Dunnett's post hoc test. *: P≤0.05 compared to control, unpaired t-test. †: P≤0.05 compared to TNFα, unpaired t-test. Error bars: SEM.

The test system of assay [3] is IKKα/β subunit. Kind of assay: TNFα induced phosphorylation of IKKα/β in sv-VSMCs, western blot. The assay is classed as cell-based, human. To be noted: 100 nm, 30 min; TNFα 10 ng/ml 15 min. On the procedure: as §1, §2, §3, §4
Background: In western blotting, separated proteins are transferred to a membrane and probed.

Another assay concerns carotid artery. In words: Mouse carotid artery ligation model, neointima formation. The assay is classed as in vivo, FVB Mice. To be noted: intraperitoneal 100 ng/dose on days 0, 1, 3, 5 and 7; sacrificed at 14 days. On the procedure:
To examine the potential therapeutic effects of systemic administration of pro-resolving mediators in acute vascular injury, a standardized mouse model of carotid ligation was employed. FVB Mice (N=23) were treated with intraperitoneal administration of RvD2 (100 ng/dose), 7R Mar-1 (100 ng/dose) or vehicle on days 0 (4 hrs prior to carotid injury), 1, 3, 5 and 7. Total dose received was 500 ng/mouse. Unilateral carotid ligation was performed as a standardized model of vascular injury, induced by low shear. Animals were then sacrificed at 14 days and perfusion-fixed vessels explanted for analysis. Following elastin staining, neointima (NI) and medial (M) compartments were measured by a blinded observer, and ratios (area and average wall thickness) calculated. Analysis was performed at mid CCA level (2.5 mm from ligature).
FIG. 22. (A)-(C), depict a cross-section of a carotid artery at mid CCA level (2.5 mm from ligature) from carotid ligation mouse model administered vehicle (A), RvD2 (B), or 7R-Mar-1 (C). (D)-(E) depict NUM ratio of the cross-section of the carotid artery at mid CCA level from carotid ligation mouse model administered vehicle, RvD2, or 7R-Mar-1. […]

`CC/C=C\C/C=C\CC(O)\C=C/C=C/C=C/C(O)C/C=C\CCC(=O)O` (stereo not drawn) [Mar-1, maresin 1 (7, 14-dihydroxy DHA)]: the “MCP-1 expression by TNF-α stimulated VSMCs” value in the assay with MCP-1 is recorded as “reduced”.

Take `CC/C=C\C/C=C\C[C@@H](O)\C=C/C=C/C=C/[C@@H](O)C/C=C\CCC(=O)O` [7R-Maresin-1, 7R,14S-dihydroxydocosa-4Z,8E,10E,12Z,16Z,19Z-hexaenoic acid]: in the assay on p65 subunit, the “nuclear translocation of p65 subunit in human sv-VSMCs” value is given as “Inhibit”. Besides, the “TNF-α-induced superoxide production in VSMC” value in assay [1] is “Reduce”. The “TNFα induced phosphorylation of IKKα/β subunit in human sv-ECs” value in the assay on IKKα/β subunit [2] was “Reduce”. Further, in the assay with IKKα/β subunit [3], the “TNFα induced phosphorylation of IKKα/β subunit in human sv-VSMCs” value is on record as “Reduce”. The “neointima formation following carotid artery ligation” value in the assay on carotid artery is “Reduces”.
